Assay results published in patent publication US20240246967A1, “AXL COMPOUNDS” (ARCUS BIOSCIENCES, INC., priority 2021, published 2024).
pIC50: −log10 of the molar value.

Target: T1, Axl (Homo sapiens, UniProt P30530)
T1 sequence (P30530 26-894): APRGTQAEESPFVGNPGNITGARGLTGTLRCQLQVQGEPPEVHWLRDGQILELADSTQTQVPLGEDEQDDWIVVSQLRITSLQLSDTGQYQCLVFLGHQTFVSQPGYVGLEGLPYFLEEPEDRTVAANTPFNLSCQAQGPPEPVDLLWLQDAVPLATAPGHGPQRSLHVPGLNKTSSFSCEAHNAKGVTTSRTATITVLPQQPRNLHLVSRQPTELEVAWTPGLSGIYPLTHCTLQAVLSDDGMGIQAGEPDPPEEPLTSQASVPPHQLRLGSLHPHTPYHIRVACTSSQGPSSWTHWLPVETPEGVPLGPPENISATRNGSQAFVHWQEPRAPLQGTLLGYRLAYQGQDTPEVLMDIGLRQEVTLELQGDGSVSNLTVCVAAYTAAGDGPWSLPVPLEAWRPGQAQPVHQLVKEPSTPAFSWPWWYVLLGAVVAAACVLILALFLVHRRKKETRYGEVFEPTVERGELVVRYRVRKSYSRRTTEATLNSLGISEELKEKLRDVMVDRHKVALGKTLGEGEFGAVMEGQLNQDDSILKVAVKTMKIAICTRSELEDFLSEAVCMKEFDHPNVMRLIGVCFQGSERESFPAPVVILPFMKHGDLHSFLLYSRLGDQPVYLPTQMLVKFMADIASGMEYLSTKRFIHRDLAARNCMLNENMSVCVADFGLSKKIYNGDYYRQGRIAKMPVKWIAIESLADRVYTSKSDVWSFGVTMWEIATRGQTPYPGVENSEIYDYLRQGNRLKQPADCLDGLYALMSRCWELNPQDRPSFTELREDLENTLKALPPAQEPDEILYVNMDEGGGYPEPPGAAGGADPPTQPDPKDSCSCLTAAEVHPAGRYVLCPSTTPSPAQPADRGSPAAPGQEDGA
Assay: Axl NanoBRET intracellular kinase assay (intracellular binding, Cell Binding)
Design: host or cells: HEK-293
Conditions: HEK-293 cells transfected with Axl-NanoLuc fusion vector; 0.35 μM K-5 NanoBRET tracer
Description: Axl NanoBRET™ intracellular kinase assay (Promega, N2540) was performed according to manufacturer's recommendation. In brief, HEK-293 cells are transiently transfected with Axl-NanoLuc fusion vector (Promega, NV1071), utilizing Fugene HD transfection reagent (Promega, E2311) a day before experiment following manufacturer's recommendation.
The day of the assay, the cells were collected and resuspended in Opti-MEM media (ThermoFisher, 31985070) at 2e5 cells/mL concentration. Testing compounds were serial diluted and dispensed into a white 384 well polystyrene plate at 200 nL in 100% DMSO. 40 μL of resuspended cells is then added per well for a final condition of 8K cells/well with 0.5% DMSO. After one-hour compound pre-incubation at 37° C. and 5% CO2, cells were further incubated with 0.35 μM K-5 NanoBRET tracer for two-hours at 37° C. and 5% CO2. […] of 3× substrate plus Inhibitor solution was prepared according to kits manual and added to the cells followed by a 30 second pulse centrifugation spin. The plate was then immediately read utilizing an Envision (Perkin Elmer) plate reader. The BRET signal is measured by taking the ratio of the emissions reading at 610 nm and 450 nm. Compound binding is based on the decrease BRET signal caused by the displacement of the K-5 tracer. […] IC50 value of compounds was determined by 4-parameter non-linear regression fitting of percent activity in GraphPad Prism software.

Row | SMILES | pIC50
1 | COCCN1CCc2ccc(-c3cnc4[nH]nc(-c5ccc(C(C)(C)O)c(Cl)c5)c4c3)cc2CC1 [Example 34, 2-(2-Chloro-4-(5-(3-(2-methoxyethyl)-2,3,4,5-tetrahydro-1H-benzo[d]azepin-7-yl)-1H-pyrazolo[3,4-b]pyridin-3-yl)phenyl)propan-2-ol] | < 6.00
2 | C[C@@H]1CCCN1C1CCc2ccc(-c3cnc4[nH]nc(-c5ccc(C(C)(C)O)c(Cl)c5)c4c3)cc2CC1 (stereo partly drawn) [Example 35, 2-(2-Chloro-4-(5-(7-((R)-2-methylpyrrolidin-1-yl)-6,7,8,9-tetrahydro-5H-benzo[7]annulen-2-yl)-1H-pyrazolo[3,4-b]pyridin-3-yl)phenyl)propan-2-ol] | > 7.00
3 | C[C@H]1CCCN1C1CCc2ccc(-c3cnc4[nH]nc(-c5ccc(S(C)(=O)=O)cc5)c4c3)cc2CC1 (stereo partly drawn) [Example 36, 5-(7-((S)-2-Methylpyrrolidin-1-yl)-6,7,8,9-tetrahydro-5H-benzo[7]annulen-2-yl)-3-(4-(methylsulfonyl)phenyl)-1H-pyrazolo[3,4-b]pyridine] | > 7.00
4 | C[C@H]1CCCN1C1CCc2ccc(-c3cnc4[nH]nc(-c5ccc(C(C)(C)O)c(Cl)c5)c4c3)cc2CC1 (stereo partly drawn) [Example 37, 2-(2-Chloro-4-(5-(7-((S)-2-methylpyrrolidin-1-yl)-6,7,8,9-tetrahydro-5H-benzo[7]annulen-2-yl)-1H-pyrazolo[3,4-b]pyridin-3-yl)phenyl)propan-2-ol] | > 7.00
5 | CCS(=O)(=O)c1ccc(-c2n[nH]c3ncc(-c4ccc5c(c4)CC[C@@H](N4CCCC4)CC5)cc23)cc1 [Example 41, (S)-3-(4-(Ethylsulfonyl)phenyl)-5-(7-(pyrrolidin-1-yl)-6,7,8,9-tetrahydro-5H-benzo[7]annulen-2-yl)-1H-pyrazolo[3,4-b]pyridine] | > 7.00
6 | CC(C)S(=O)(=O)c1ccc(-c2n[nH]c3ncc(-c4ccc5c(c4)CC[C@@H](N4CCCC4)CC5)cc23)cc1 [Example 42, (S)-3-(4-(Isopropylsulfonyl)phenyl)-5-(7-(pyrrolidin-1-yl)-6,7,8,9-tetrahydro-5H-benzo[7]annulen-2-yl)-1H-pyrazolo[3,4-b]pyridine] | > 7.00
7 | Cc1cc(-c2n[nH]c3ncc(-c4ccc5c(c4)CCC(N4CCCC4)CC5)cc23)ccc1C(=O)N1CCNCC1 (stereo not drawn) [Example 47, 1-(2-Methyl-4-{5-[7-(pyrrolidin-1-yl)-6,7,8,9-tetrahydro-5H-benzo[7]annulen-2-yl]-1H-pyrazolo[3,4-b]pyridin-3-yl}benzoyl)piperazine] | > 7.00
8 | Cc1cc(-c2n[nH]c3ncc(-c4ccc5c(c4)CCN(C(=O)C(C)C)CC5)cc23)ccc1C(=O)N1CCNCC1 [Example 48, 2-Methyl-1-(7-{3-[3-methyl-4-(piperazine-1-carbonyl)phenyl]-1H-pyrazolo[3,4-b]pyridin-5-yl}-2,3,4,5-tetrahydro-1H-3-benzazepin-3-yl)propan-1-one] | 6.00 to 7.00
9 | Cc1cc(-c2n[nH]c3ncc(-c4ccc5c(c4)CC[C@@H](N4CCCC4)CC5)cc23)cc(C)c1C(N)=O [Example 49, 2,6-Dimethyl-4-{5-[(7S)-7-(pyrrolidin-1-yl)-6,7,8,9-tetrahydro-5H-benzo[7]annulen-2-yl]-1H-pyrazolo[3,4-b]pyridin-3-yl}benzamide] | > 7.00
10 | Cc1cc(-c2n[nH]c3ncc(-c4ccc5c(c4)CC[C@@H](N4CCCC4)CC5)cc23)cc(Cl)c1C(N)=O [Example 50, 2-Chloro-6-methyl-4-{5-[(7S)-7-(pyrrolidin-1-yl)-6,7,8,9-tetrahydro-5H-benzo[7]annulen-2-yl]-1H-pyrazolo[3,4-b]pyridin-3-yl}benzamide] | > 7.00
11 | C[C@@H]1CCCN1C1(C)CCc2ccc(-c3cnc4[nH]nc(-c5ccc(C(N)=O)c(F)c5)c4c3)cc2CC1 (stereo partly drawn) [Example 52, 2-Fluoro-4-(5-(7-methyl-7-((R)-2-methylpyrrolidin-1-yl)-6,7,8,9-tetrahydro-5H-benzo[7]annulen-2-yl)-1H-pyrazolo[3,4-b]pyridin-3-yl)benzamide] | > 7.00
12 | COc1cc(-c2n[nH]c3ncc(-c4ccc5c(c4)CCC(C)(N4CCC[C@H]4C)CC5)cc23)ccc1C(N)=O (stereo partly drawn) [Example 53, 2-Methoxy-4-(5-(7-methyl-7-((R)-2-methylpyrrolidin-1-yl)-6,7,8,9-tetrahydro-5H-benzo[7]annulen-2-yl)-1H-pyrazolo[3,4-b]pyridin-3-yl)benzamide] | > 7.00
13 | Cc1cc(-c2n[nH]c3ncc(-c4ccc5c(c4)CC[C@@H](N4CCCC4)CC5)cc23)cc(C)c1C(=O)N1CCNCC1 [Example 55, 1-(2,6-Dimethyl-4-{5-[(7S)-7-(pyrrolidin-1-yl)-6,7,8,9-tetrahydro-5H-benzo[7]annulen-2-yl]-1H-pyrazolo[3,4-b]pyridin-3-yl}benzoyl)piperazine] | > 7.00
14 | Cc1cc(-c2n[nH]c3ncc(-c4ccc5c(c4)CC[C@@H](N4CCCC4)CC5)cc23)cc(Cl)c1C(=O)N1CCNCC1 [Example 56, 1-(2-Chloro-6-methyl-4-{5-[(7S)-7-(pyrrolidin-1-yl)-6,7,8,9-tetrahydro-5H-benzo[7]annulen-2-yl]-1H-pyrazolo[3,4-b]pyridin-3-yl}benzoyl)piperazine] | > 7.00
15 | C[C@@H]1CCCN1C1(C)CCc2ccc(-c3cnc4[nH]nc(-c5ccc(C(C)(C)O)c(Cl)c5)c4c3)cc2CC1 (stereo partly drawn) [Example 57, 2-[2-Chloro-4-(5-{7-methyl-7-[(2R)-2-methylpyrrolidin-1-yl]-6,7,8,9-tetrahydro-5H-benzo[7]annulen-2-yl}-1H-pyrazolo[3,4-b]pyridin-3-yl)phenyl]propan-2-ol] | > 7.00

Second part, the compound after the results:

Row | pIC50 | SMILES
16 | > 7.00 | C[C@@H]1CCCN1C1CCc2ccc(-c3cnc4[nH]nc(-c5ccc(S(C)(=O)=O)cc5)c4c3)cc2CC1 (stereo partly drawn) [Example 38, 5-(7-((R)-2-Methylpyrrolidin-1-yl)-6,7,8,9-tetrahydro-5H-benzo[7]annulen-2-yl)-3-(4-(methylsulfonyl)phenyl)-1H-pyrazolo[3,4-b]pyridine]
17 | > 7.00 | C[C@@H]1CCCN1C1CCc2ccc(-c3cnc4[nH]nc(-c5ccc(S(=O)(=O)C6CC6)cc5)c4c3)cc2CC1 (stereo partly drawn) [Example 39, 3-(4-(Cyclopropylsulfonyl)phenyl)-5-(7-((R)-2-methylpyrrolidin-1-yl)-6,7,8,9-tetrahydro-5H-benzo[7]annulen-2-yl)-1H-pyrazolo[3,4-b]pyridine]
18 | > 7.00 | O=S(=O)(c1ccc(-c2n[nH]c3ncc(-c4ccc5c(c4)CC[C@@H](N4CCCC4)CC5)cc23)cc1)C1CC1 [Example 40, (S)-3-(4-(Cyclopropylsulfonyl)phenyl)-5-(7-(pyrrolidin-1-yl)-6,7,8,9-tetrahydro-5H-benzo[7]annulen-2-yl)-1H-pyrazolo[3,4-b]pyridine]
19 | 6.00 to 7.00 | C[C@@H]1CCCN1C1(C)CCc2ccc(-c3cnc4[nH]nc(-c5ccc(S(=O)(=O)C6CCCC6)cc5)c4c3)cc2CC1 (stereo partly drawn) [Example 45, 3-(4-(Cyclopentylsulfonyl)phenyl)-5-(7-methyl-7-((R)-2-methylpyrrolidin-1-yl)-6,7,8,9-tetrahydro-5H-benzo[7]annulen-2-yl)-1H-pyrazolo[3,4-b]pyridine]
20 | > 7.00 | C[C@@H]1CCCN1C1(C)CCc2ccc(-c3cnc4[nH]nc(-c5ccc(S(=O)(=O)C6CCC6)cc5)c4c3)cc2CC1 (stereo partly drawn) [Example 46, 3-(4-(Cyclobutylsulfonyl)phenyl)-5-(7-methyl-7-((R)-2-methylpyrrolidin-1-yl)-6,7,8,9-tetrahydro-5H-benzo[7]annulen-2-yl)-1H-pyrazolo[3,4-b]pyridine]
21 | > 7.00 | C[C@@H]1CCCN1C1(C)CCc2ccc(-c3cnc4[nH]nc(-c5ccc(C(N)=O)cc5)c4c3)cc2CC1 (stereo partly drawn) [Example 54, 4-(5-(7-Methyl-7-((R)-2-methylpyrrolidin-1-yl)-6,7,8,9-tetrahydro-5H-benzo[7]annulen-2-yl)-1H-pyrazolo[3,4-b]pyridin-3-yl)benzamide]
